# Entries after “also recorded” stand apart in the source; their conditions may differ. Read-outs that look alike come from different tables or passages of the source.
# Columns and labels:
# [1] = Solubility in dosing vehicle; format: physicochemical; conditions: 10% PEG400/saline mixture; 30 mg/mL dosing solution
# Procedure: The vehicle for suplatast tosilate was 10% PEG400/saline mixture. Suplatast tosilate was well soluble in this mixture. ST was administered intraperitoneally at 30 mg/kg dose (1 ml/kg b.d.w. volume from the 30 mg/mL solution/suspension) 30 min before citric acid challenge. 6 guinea pigs were included in the vehicle group and in the ST group.
# The vehicle for suplatast tosilate (ST) is 10% PEG400/saline mixture. ST is well soluble in this mixture. ST is administered intraperitoneally at 30 mg/kg dose (1 ml/kg b.d.w. volume from the 30 mg/mL solution/suspension) 30 min before citric acid challenge. 6 guinea pigs were included in the vehicle and in the ST groups.
# [2] = test system: bleomycin-treated guinea pigs (capsaicin inhalation-induced cough); assay: 30 uM capsaicin cough challenge on bleomycin-treated animals (pre-clinical model of pulmonary fibrosis); format: in vivo, guinea pig; conditions: for inhibition at 30 mg/kg: Cavia porcellus, ip; for mean cough, 10 min exposure: bleomycin-treated (14 days after 8 U/kg intratracheal), 30 mg/kg i.p. 30 min before 30 uM capsaicin, vehicle 52.9; for mean cough, 10 min exposure / mean cough, 5 min observation / mean cough, 10 + 5 min: n=14-16; for antitussive effect (conclusion in words): bleomycin-treated animals, capsaicin challenge; for mean cough, 5 min observation: 5 min post-exposure period, vehicle 22.4; for mean cough, 10 + 5 min: vehicle 75.3
# Procedure: (§1) The study was conducted as described in example 2, with the following exceptions. The bleomycin-induced cough modes is described J. A. Fernandez-Blanco et al: Clinical Science (2015) 129, 1001-1010).
# (§2) The objective of the present study was to evaluate the potential anti-tussive effect of suplatast tosilate on capsaicin inhalation-induced cough on naïve and bleomycin-treated guinea pigs.
# (§3) Male guinea pigs 300-350 g bodyweight (Harlan MD, distributed by INNOVO Ltd., Hungary) were used. The animals were housed in individually ventilated cabinets in a temperature-controlled and ventilated environment (21-23° C.) with a 12-hour light-dark cycle. Water and standard ascorbic acid containing guinea pig chow were provided ad libitum. The protocol has been approved by the Hungarian Food Chain Safety and Animal Health Directorate (PEI/001/3083-6/2014) and was carried out in accordance with European Directive 86/609/EEC.
# (§4) Suplatast tosilate (racemate) and reference compound codeine were dissolved in saline ([…]) at 15 mg/mL concentration. Suplatast tosilate was administered intraperitoneally at 30 mg/kg dose (2 ml/kg b.d.w. volume from the […] solution) 30 min before capsaicin challenge. Codeine is a known cough suppressant.
# (§5) Three experimental groups were involved in this study: Vehicle, suplatast tosilate and codeine treated groups. Each group contained n=16 guinea pigs. Altogether, 48 guinea pigs were used for this study.
# (§6) On day 0 the naïve animals were treated i.p. either with codeine or suplatast tosilate. 30 min later the cough challenge was applied. 14 days later the animals were anaesthetized by ketamin/xilazine/acepromazine 10/2/0.1 mg/kg at 1 mL/kg i.m. The trachea was prepared and 8 U/kg bodyweight (1 mL/kg volume in sterile saline) bleomycin was injected slowly into the trachea. The wound was closed by sutures. 14 days after bleomycin injection the animals were treated with the test molecules and exposed to capsaicin spray again.
# (§7) The capsaicin cough-challenge protocol was applied both on day 0 naïve animals and on day 28 on bleomycin treated animals. The guinea pigs were exposed to 30 μM capsaicin spray 30 min after the test item administration. The 30 μM capsaicin spray was generated by a compressed air nebulizer (DeVilbiss Pulmoaid) connected to a transparent chamber (6.7 l volume). Compressed air with a flow of 0.16 l/s and pressure of 0.5 bar produced the spray. The capsaicin vapour penetrated into the chamber through a short tube driven by constant air flow. The animals were put into a transparent chamber individually and exposed to the capsaicin (30 μM capsaicin was diluted by water from 10^-2 M alcoholic capsaicin stock solution) aerosol for 10 minutes. The number of coughs during the 10 min inhalation period and the subsequent 5 min was counted. The coughing of the animals was defined as a strong contraction of abdomen which was followed by forced expiration through the opened mouth of the animals. Two trained technicians monitored in parallel the exposed animals and counted the cough numbers independently from each-others.
# (§8) The cough numbers in each group were expressed as median and inter quartile range on the figures and mean±SD on tables. The percentage antitussive effect was also calculated.
# [3] = test system: guinea-pigs (airway cough hypersensitivity, allergic eosinophilic inflammation); conditions: cited from earlier work
# Atopic cough = conditions: after four weeks of treatment; cited from earlier work
# [4] = test system: patients with Cough Variant Asthma; conditions: cited from earlier work
# [5] = test system: guinea pigs (enalapril plus citric acid induced cough); assay: Cough induced by enalapril plus citric acid in guinea pigs; format: in vivo, guinea pig; conditions: 30 mg/kg i.p. 30 min before 10% citric acid spray; enalapril 1.3 mg/kg s.c.; whole 8-min observation; mean±S.E.M.; n=6; vehicle 11.2±2.6
# Procedure: as §3, with “The method is described in detail by Zhou et al: Pharmacology. 2015; 95(1-2): 36-41. In brief: Male” for “Male”, “open cages” for “individually ventilated cabinets”
# The enalapril maleate was dissolved in sterile saline (Salsol infusion, Teva) at 1.3 mg/mL concentration and was applied subcutaneously at 1.3 mg/kg dose (1 mL/kg b.d.w. volume from the 1.3 mg/mL solution) 30 min before vehicle, suplatast tosilate or administration. […]
# The guinea pigs were exposed to 10% citric acid spray 30 min after the test item administration. […] The number of coughs during the 3 min inhalation period and the subsequent 5 min was counted. […] The sound of the cough was monitored by a microphone connected to a loudspeaker placed into the cough chamber. A trained technician monitored the exposed animals and counted the cough numbers.
# The average cough numbers in each group was expressed as mean±S.E.M. The percentage antitussive effect was also calculated.
# [6] = test system: refractory chronic dry cough following lung cancer surgery; conditions: cited from earlier work
# [7] = test system: guinea pigs (enalapril plus citric acid induced cough); conditions: Zhou et al 2015; cited from earlier work
# [8] = test system: naive guinea pigs (capsaicin inhalation-induced cough); assay: 30 uM capsaicin cough challenge on naive animals; format: in vivo, guinea pig; conditions: for inhibition at 30 mg/kg: Cavia porcellus, ip; for mean cough, 10 min exposure: 30 mg/kg i.p. 30 min before 30 uM capsaicin, vehicle 9.3; for mean cough, 10 min exposure / mean cough, 5 min observation / mean cough, 10 + 5 min: n=16; for mean cough, 5 min observation: 5 min post-exposure period, vehicle 2.4; for mean cough, 10 + 5 min: vehicle 11.7; for antitussive effect (conclusion in words): capsaicin challenge
# Procedure: as §1, §2, §3, §4, §5, §6, §7, §8
# [9] = test system: patients with non-atopic asthma or chronic bronchitis; conditions: cited from earlier work
# [10] = test system: Idiopathic Pulmonary Fibrosis (IPF); conditions: cited from earlier work
# [11] = test system: patients receiving the drug; conditions: cited from earlier work
# [12] = bleomycin-treated, 30 mg/kg i.p.
# [13] = bleomycin-treated, 30 mg/kg i.p., whole 15-min observation
# [14] = naive animals, 30 mg/kg i.p., whole 15-min observation
# [15] = 5 min, read-out: Percentage inhibition (antitussive effect), 5 min observation
# [16] = 10 min, read-out: Percentage inhibition (antitussive effect), 10 min exposure
# [17] = read-out: Percentage inhibition (antitussive effect), 10 + 5 min
smiles,measurement,setting,value
"CCOCC(O)COc1ccc(NC(=O)CC[S+](C)C)cc1.Cc1ccc(S(=O)(=O)[O-])cc1 (racemic) [Suplatast tosilate, (±)-3-{[4-(3-ethoxy-2-hydroxypropoxy)phenyl]amino}-3-oxopropyl)(dimethyl)sulfonium; 4-methylbenzenesulfonate]",solubility in vehicle,[1],well soluble
same,inhibition at 30 mg/kg,"[2]; 5 min, bleomycin-treated, 30 mg/kg i.p., post-exposure period, versus vehicle, read-out: Percentage inhibition (antitussive effect), 5 min observation",77.7%
same,inhibition at 30 mg/kg,"[2]; 10 min, bleomycin-treated, 30 mg/kg i.p., versus vehicle, read-out: Percentage inhibition (antitussive effect), 10 min exposure",42.8%
same,inhibition at 30 mg/kg,"[2]; bleomycin-treated, 30 mg/kg i.p., whole 15-min observation, versus vehicle, read-out: Percentage inhibition (antitussive effect), 10 + 5 min",53.2%
same,"mean cough, 10 min exposure",[2],30.3
same,antitussive effect (conclusion in words),[2]; 30 mg/kg i.p.,relevant and statistically significant antitussive effect
same,"mean cough, 5 min observation",[2]; [12],5
same,"mean cough, 10 + 5 min",[2]; [13],35.3
same,acute effect on capsaicin induced cough,"[3]; acute administration, airway allergy guinea-pig model",does not acutely reduce capsaicin induced cough
same,effect on airway cough hypersensitivity,"[3]; sub-chronic administration, allergic eosinophilic inflammation, listed as ST",reduce airway cough hypersensitivity; also recorded: inhibiting airway cough hypersensitivity
same,effect on cough threshold,Atopic cough,decreasing cough threshold
same,effect on cough in capsaicin challenge,[4],improving cough
same,cough number,[5],7.2±2.8
same,effect on refractory chronic dry cough,[6],benefit refractory chronic dry cough
same,effect on citric acid+enalapril induced cough,[7],reduce citric acid+enalapril induced cough
same,inhibition at 30 mg/kg,"[8]; 5 min, naive animals, 30 mg/kg i.p., post-exposure period, versus vehicle, read-out: Percentage inhibition (antitussive effect), 5 min observation",-51.9%
same,inhibition at 30 mg/kg,"[8]; 10 min, naive animals, 30 mg/kg i.p., versus vehicle, read-out: Percentage inhibition (antitussive effect), 10 min exposure",-5.4%
same,inhibition at 30 mg/kg,"[8]; naive animals, 30 mg/kg i.p., whole 15-min observation, versus vehicle, read-out: Percentage inhibition (antitussive effect), 10 + 5 min",-15%
same,"mean cough, 10 min exposure",[8]; naive animals,9.8
same,"mean cough, 5 min observation","[8]; naive animals, 30 mg/kg i.p.",3.7
same,"Percentage inhibition (antitussive effect), 5 min observation","[8]; naive animals, 30 mg/kg i.p., post-exposure period, versus vehicle, 30 mg/kg",did not show antitussive effect
same,"Percentage inhibition (antitussive effect), 10 min exposure","[8]; naive animals, 30 mg/kg i.p., versus vehicle, 30 mg/kg",did not show antitussive effect
same,"mean cough, 10 + 5 min",[8]; [14],13.4
same,antitussive effect (conclusion in words),"[8]; naive animals, 30 mg/kg i.p.",did not show antitussive effect
same,effect on cough reflex sensitivity,[9],does not change the cough reflex sensitivity
"COc1ccc2c3c1O[C@H]1[C@@H](O)C=C[C@H]4[C@@H](C2)N(C)CC[C@@]341 [Codeine, codeine]",inhibition at 30 mg/kg,[2]; [15],76.2%
same,inhibition at 30 mg/kg,[2]; [16],72.9%
same,inhibition at 30 mg/kg,[2]; [17],73.9%
same,"mean cough, 10 min exposure",[2],14.3
same,antitussive effect (conclusion in words),[2]; 30 mg/kg i.p.,showed antitussive effect
same,"mean cough, 5 min observation",[2]; [12],5.3
same,"mean cough, 10 + 5 min",[2]; [13],19.7
same,inhibition at 30 mg/kg,[8]; [15],97.4%
same,inhibition at 30 mg/kg,[8]; [16],43.9%
same,inhibition at 30 mg/kg,[8]; [17],55%
same,"mean cough, 10 min exposure",[8]; naive animals,5.2
same,"mean cough, 5 min observation","[8]; naive animals, 30 mg/kg i.p.",0.1
same,"mean cough, 10 + 5 min",[8]; [14],5.3
same,antitussive effect (conclusion in words),"[8]; naive animals, 30 mg/kg i.p.",showed antitussive effect
"COC(=O)c1ccc2c(c1)NC(=O)/C2=C(\Nc1ccc(N(C)C(=O)CN2CCN(C)CC2)cc1)c1ccccc1 [Ofev (nintedanib), nintedanib]",effect on decline of lung function,[10],slow the decline of lung function
same,effect on mortality and lung function,[10],has not been shown to reduce mortality or improve lung function
CCCCc1oc2ccccc2c1C(=O)c1cc(I)c(OCCN(CC)CC)c(I)c1 [amiodarone],patients who get pulmonary fibrosis,[11],up to 40%
O=C1CN(/N=C/c2ccc([N+](=O)[O-])o2)C(=O)N1 [nitrofurantoin],patients who get pulmonary fibrosis,[11],0.01%

# Source: patent US11690814B2, “Suplatast tosilate for use in the treatment of cough associated with interstitial lung disease” (Conrig Pharma ApS, priority 2016, dated 2023)
